According to US8034768B2, “Composition and method for the treatment of diseases affected by histone deacetylase inhibitors” (Board of Regents, The University of Texas System, priority 2007, dated 2011):
Starred links: 1 amine or outer side, 2 acyl side, 3 side chain; linkers in the order of their positions; H or OH if unused. Positions of bridges follow the written chain, without caps; N, C: chain ends. Non-standard residues stand in square brackets, D forms with d. Residues, ends and D or L forms follow the SMILES beside them. 1Nal = N[C@@H](Cc1cccc2ccccc12)C(=O)O; 2Nal = N[C@@H](Cc1ccc2ccccc2c1)C(=O)O; Cysteamide = C(CS[*:3])N[*:1]

How the values were obtained:
[1] = system: 3 prostate and 3 bladder cancer cells; experiment: MTT cell proliferation assay on a variety of cancer cells (FIG. 10); format: cell-based, human
Protocol: (§1) To evaluate anti-tumoral activity of the modified FK228 analogues, human transitional carcinoma cell lines T24, TCCSUP, 253J and human prostate cancer cell lines PC-3, LNCaP, Du-145 were cultured in T medium (Invitrogen) supplemented with 5% fetal bovine serum and 1% penicillin-streptomycin. 2×10^3 Cells in 50 μL of medium were plated into each well of a 96-well plate one day before adding compound. Each compound was diluted with DMSO to two folds of the concentrations, then 50 μL of the compound-containing medium was added into cells. Each treatment was in triplicate. Three days later, cell proliferation was measured with a cell proliferation kit (Roche). Briefly, 10 μL of MTT (3-[4,5-dimethylthiazol-2-yl]-2,5-diphenyl tetrazolium bromide) was added into each well for 4 hours, then 100 μL of the solubilization solution was added and cells were incubated for overnight. The spectrophotometrical absorbance of the samples was measured with a SpectraMax M5 plate reader (Molecular Devices) at 565 nm. The data were presented as percentage inhibition using non-treated cells as control.
FIGS. 9-11 are graphs showing dose-dependent growth inhibition of cancer cells (prostate and bladder cancers) by modified FK228 analogues. […] FIG. 10 includes the general structure in FIG. 10A including R groups. […]

[2] = system: prostate cancer cells; format: cell-based, human
Protocol: as §1
FIGS. 9-11 are graphs showing dose-dependent growth inhibition of cancer cells (prostate and bladder cancers) by modified FK228 analogues. […] FIG. 10 includes the general structure in FIG. 10A including R groups. The R groups are defined in FIG. 10B and growth inhibition for the specific composition depicted in FIG. 10B are shown in FIG. 10C. […] Similarly, FIG. 11 includes the general structure in FIG. 1A including R groups. The R groups are defined in FIG. 1B and growth inhibition for the specific composition depicted in FIG. 10B are shown in FIG. 1C. […] FIG. 11A is a structure of the modified FK228 analogues and the side chain functional groups of the structure in FIG. 11A is shown in FIG. 11B. FIG. 11C is a graph of the activity as a function of side chain seen in FIG. 11B.

[3] = system: K562 cells; experiment: Cell viability of K562 cells treated for γ-globin expression study; format: cell-based; conditions: about 48 hours, about 0.3 μM
Protocol: The synthesized modified FK228 analogues of the present invention were assessed to examine their capability to induce γ-globin expression. K562 cells were treated with the synthesized modified FK228 analogues at various concentrations (e.g., between about 0.01 nM and about 10 μM) for about 48 hours and expression of γ-globin was determined by real-time PCR as well as checking cell viability.

GI50 [2] [nM] | SMILES | cytotoxicity on a variety of cancer cells [1] | cell viability [3]
460 | CC(C)[C@H]1NC(=O)C[C@@H]2NC(=O)[C@H](Cc3ccccc3)NC(=O)[C@H](Cc3ccccc3)NC(=O)[C@@H](CSSCCNC2=O)NC1=O [JMA26] ([dV][dC]FFD-Cysteamide; disulfide 2-C; lactam N-5) | high cytotoxicity | –
33 | CC(C)[C@H]1NC(=O)C[C@@H]2NC(=O)[C@H](Cc3ccc4ccccc4c3)NC(=O)[C@H](Cc3ccc4ccccc4c3)NC(=O)[C@@H](CSSCCNC2=O)NC1=O [JMA33] ([dV][dC][2Nal][2Nal]D-Cysteamide; disulfide 2-C; lactam N-5) | – | –
170 | CC(C)[C@H]1NC(=O)C[C@@H]2NC(=O)[C@H](Cc3ccccc3)NC(=O)[C@H](Cc3ccc4ccccc4c3)NC(=O)[C@@H](CSSCCNC2=O)NC1=O [JMA46] ([dV][dC][2Nal]FD-Cysteamide; disulfide 2-C; lactam N-5) | – | –
47 | CC(C)[C@H]1NC(=O)C[C@@H]2NC(=O)[C@H](Cc3cccc4ccccc34)NC(=O)[C@H](Cc3cccc4ccccc34)NC(=O)[C@@H](CSSCCNC2=O)NC1=O [JMA47] ([dV][dC][1Nal][1Nal]D-Cysteamide; disulfide 2-C; lactam N-5) | – | –
– | CC(/C=C/C(=O)NO)=C\[C@@H](C)C(=O)c1ccc(N(C)C)cc1 [TSA, Trichostatin A] | – | 30-40%
